Key:
Assay type in all cases: in vivo
[1] = tested on: rice (Oryza saliva); assay: Test C flooded paddy test; conditions: for Rice plant response rating: Flooded Paddy, scale 0 to 100, 0 no effect, 100 complete control; for Plant response rating, Rice: flooded paddy test, scale 0 to 100 (0 no effect, 100 complete control)
How it was run: (§1)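 Plants were grown to the 2-leaf stage under flooded paddy conditions and treated. They were then kept in a greenhouse for 12 to 14 days and visually rated against untreated controls on a 0–100 scale, where 0 is no effect and 100 is complete control.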

[2] = tested on: barnyardgrass (Echinochloa crus-galli); assay: Test C flooded paddy test; conditions: for Barnyardgrass plant response rating: Flooded Paddy, scale 0 to 100, 0 no effect, 100 complete control; for Plant response rating, Barnyardgrass: flooded paddy test, scale 0 to 100 (0 no effect, 100 complete control)
How it was run: as §1

[3] = tested on: smallflower flatsedge (Cyperus difformis); assay: Test C flooded paddy test; conditions: for Flatsedge plant response rating: Flooded Paddy, scale 0 to 100, 0 no effect, 100 complete control; for Plant response rating, Flatsedge: flooded paddy test, scale 0 to 100 (0 no effect, 100 complete control)
How it was run: as §1

[4] = tested on: duck salad (Heteranthera limosa); assay: Test C flooded paddy test; conditions: for Ducksalad plant response rating: Flooded Paddy, scale 0 to 100, 0 no effect, 100 complete control; for Plant response rating, Ducksalad: flooded paddy test, scale 0 to 100 (0 no effect, 100 complete control)
How it was run: as §1

[5] = tested on: wild oat (Avena fatua); assay: Test B postemergence
How it was run: (§2)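 Seeds were planted and sprayed preemergence with test chemical in a non-phytotoxic solvent mixture containing surfactant; postemergence plants (2 to 18 cm, 1- to 4-leaf stage) received the same formulation. Greenhouse hold 13 to 15 days, then visual rating versus untreated controls on a 0–100 scale (0 no effect, 100 complete control).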

[6] = tested on: cocklebur (Xanthium strumarium); assay: Test B postemergence
How it was run: as §2

[7] = tested on: pigweed (Amaranthus retroflexus); assay: Test B postemergence
How it was run: as §2

[8] = tested on: giant foxtail (Setaria faberii); assay: Test B postemergence
How it was run: as §2

[9] = tested on: velvetleaf (Abutilon theophrasti); assay: Test B postemergence
How it was run: as §2

[10] = tested on: blackgrass (Alopecurus myosuroides); assay: Test B postemergence
How it was run: as §2

[11] = tested on: wheat (Triticum aestivum); assay: Test B postemergence
How it was run: as §2

[12] = tested on: lambsquarters (Chenopodium album); assay: Test B postemergence
How it was run: as §2

[13] = tested on: barnyardgrass (Echinochloa crus-galli); assay: Test B postemergence
How it was run: as §2

[14] = tested on: Surinam grass (Brachiaria decumbens); assay: Test B postemergence
How it was run: as §2

[15] = tested on: morning glory (Ipomoea hederacea); assay: Test B postemergence
How it was run: as §2

[16] = tested on: crabgrass (Digitaria sanguinalis); assay: Test B postemergence
How it was run: as §2

[17] = tested on: corn (Zea mays); assay: Test B postemergence
How it was run: as §2

[18] = tested on: cocklebur (Xanthium strumarium); assay: Test B preemergence
How it was run: as §2

[19] = tested on: pigweed (Amaranthus retroflexus); assay: Test B preemergence
How it was run: as §2

[20] = tested on: rice (Oryza saliva); assay: Test B preemergence
How it was run: as §2

[21] = tested on: giant foxtail (Setaria faberii); assay: Test B preemergence
How it was run: as §2

[22] = tested on: velvetleaf (Abutilon theophrasti); assay: Test B preemergence
How it was run: as §2

[23] = tested on: lambsquarters (Chenopodium album); assay: Test B preemergence
How it was run: as §2

[24] = tested on: barnyardgrass (Echinochloa crus-galli); assay: Test B preemergence
How it was run: as §2

[25] = tested on: Surinam grass (Brachiaria decumbens); assay: Test B preemergence
How it was run: as §2

[26] = tested on: morning glory (Ipomoea hederacea); assay: Test B preemergence
How it was run: as §2

[27] = tested on: crabgrass (Digitaria sanguinalis); assay: Test B preemergence
How it was run: as §2

[28] = tested on: corn (Zea mays); assay: Test B preemergence
How it was run: as §2

[29] = Rate 125 g/ha, scale 0 to 100, 0 no effect, 100 complete control
[30] = Rate 500 g/ha, scale 0 to 100, 0 is no effect, 100 is complete control, 13 to 15 days
[31] = Preemergence, Rate 500 g/ha, scale 0 to 100, 0 no effect, 100 complete control
[32] = preemergence, Rate 125 g/ha, scale of 0 to 100 where 0 is no effect and 100 is complete control, 13 to 15 days

CCCCC(CCCC)c1ccn(C2OCN(c3cccc(C(F)(F)F)c3)C2=O)n1 (stereo not shown) [Compound 114] was tested. Which “Rice plant response rating” value ([1]; Rate 250 g/ha) did it give?
The value was 0.

What about the “Rice plant response rating” value ([1]; Rate 500 g/ha) of the same molecule?
The value was 0.

And the “Plant response rating, Rice” value ([1]; Rate 62 g/ha)?
Its value is 0.

And the “Plant response rating, Rice” value ([1]; Rate 125 g/ha)?
The value was 0.

What about the “Barnyardgrass plant response rating” value ([2]; Rate 250 g/ha) of the same molecule?
Its value is 0.

What about the “Barnyardgrass plant response rating” value ([2]; Rate 500 g/ha) of the same molecule?
The value was 0.

And the “Plant response rating, Barnyardgrass” value ([2]; Rate 62 g/ha)?
Its value is 0.

What about the “Plant response rating, Barnyardgrass” value ([2]; Rate 125 g/ha) of the same molecule?
The value was 0.

What about the “Flatsedge plant response rating” value ([3]; Rate 250 g/ha) of the same molecule?
The value was 0.

And the “Flatsedge plant response rating” value ([3]; Rate 500 g/ha)?
Its value is 0.

And the “Plant response rating, Flatsedge” value ([3]; Rate 62 g/ha)?
The value was 0.

And the “Plant response rating, Flatsedge” value ([3]; Rate 125 g/ha)?
Its value is 0.

And the “Ducksalad plant response rating” value ([4]; Rate 250 g/ha)?
The value was 0.

What about the “Ducksalad plant response rating” value ([4]; Rate 500 g/ha) of the same molecule?
Its value is 0.

And the “Plant response rating, Ducksalad” value ([4]; Rate 62 g/ha)?
The value was 0.

And the “Plant response rating, Ducksalad” value ([4]; Rate 125 g/ha)?
The value was 0.

And the “Plant response rating, Wild Oat” value [5, 29]?
Its value is 30.

What about the “Plant response rating, Wild Oat” value [5, 30] of the same molecule?
The value was 50.

And the “Plant response rating, Cocklebur” value [6, 29]?
The value was 50.

What about the “Plant response rating, Cocklebur” value [6, 30] of the same molecule?
The value was 60.

What about the “Plant response rating, Pigweed” value [7, 29] of the same molecule?
Its value is 90.

And the “Plant response rating, Pigweed” value [7, 30]?
The value was 100.

What about the “Plant response rating, Foxtail, Giant” value [8, 29] of the same molecule?
The value was 0.

What about the “Plant response rating, Foxtail, Giant” value [8, 30] of the same molecule?
The value was 0.

And the “Plant response rating, Velvetleaf” value [9, 29]?
The value was 0.

What about the “Plant response rating, Velvetleaf” value [9, 30] of the same molecule?
Its value is 0.

And the “Plant response rating, Blackgrass” value [10, 29]?
Its value is 0.

What about the “Plant response rating, Blackgrass” value [10, 30] of the same molecule?
The value was 0.

What about the “Plant response rating, Wheat” value [11, 29] of the same molecule?
The value was 20.

And the “Plant response rating, Wheat” value [11, 30]?
The value was 30.

And the “Plant response rating, Lambsquarters” value [12, 29]?
The value was 90.

What about the “Plant response rating, Lambsquarters” value [12, 30] of the same molecule?
The value was 100.

What about the “Plant response rating, Barnyardgrass” value [13, 29] of the same molecule?
Its value is 0.

And the “Plant response rating, Barnyardgrass” value [13, 30]?
The value was 20.

And the “Plant response rating, Surinam grass” value [14, 29]?
Its value is 30.

And the “Plant response rating, Surinam grass” value [14, 30]?
The value was 30.

And the “Plant response rating, Morningglory” value [15, 29]?
The value was 30.

What about the “Plant response rating, Morningglory” value [15, 30] of the same molecule?
The value was 60.

And the “Plant response rating, Crabgrass” value [16, 29]?
The value was 20.

What about the “Plant response rating, Crabgrass” value [16, 30] of the same molecule?
The value was 30.

And the “Plant response rating, Corn” value [17, 29]?
The value was 0.

And the “Plant response rating, Corn” value [17, 30]?
The value was 0.

What about the “Plant response rating, Cocklebur” value [18, 31] of the same molecule?
Its value is 0.

And the “Plant response rating, Cocklebur” value [18, 32]?
The value was 0.

And the “Plant response rating, Pigweed” value [19, 31]?
Its value is 100.

What about the “Plant response rating, Pigweed” value [19, 32] of the same molecule?
Its value is 30.

What about the “Plant response rating, Rice” value [20, 31] of the same molecule?
The value was 0.

What about the “Plant response rating, Rice” value [20, 32] of the same molecule?
The value was 0.

What about the “Plant response rating, Foxtail, Giant” value [21, 31] of the same molecule?
Its value is 0.

What about the “Plant response rating, Foxtail, Giant” value [21, 32] of the same molecule?
The value was 0.

And the “Plant response rating, Velvetleaf” value [22, 31]?
The value was 0.

And the “Plant response rating, Velvetleaf” value [22, 32]?
The value was 0.

What about the “Plant response rating, Lambsquarters” value [23, 31] of the same molecule?
The value was 100.

What about the “Plant response rating, Lambsquarters” value [23, 32] of the same molecule?
Its value is 30.

What about the “Plant response rating, Barnyardgrass” value [24, 31] of the same molecule?
Its value is 0.

What about the “Plant response rating, Barnyardgrass” value [24, 32] of the same molecule?
The value was 0.

And the “Plant response rating, Surinam grass” value [25, 31]?
Its value is 0.

And the “Plant response rating, Surinam grass” value [25, 32]?
Its value is 0.

What about the “Plant response rating, Morningglory” value [26, 31] of the same molecule?
The value was 30.

What about the “Plant response rating, Morningglory” value [26, 32] of the same molecule?
The value was 0.

And the “Plant response rating, Crabgrass” value [27, 31]?
The value was 0.

What about the “Plant response rating, Crabgrass” value [27, 32] of the same molecule?
Its value is 0.

And the “Plant response rating, Corn” value [28, 31]?
The value was 30.

And the “Plant response rating, Corn” value [28, 32]?
The value was 20.
